Experimental findings from paper PMC3923778 (PLoS Currents, 2014) are described below.

The nature of series [1]: Microdialysis PK: SCH-51866 in striatal extracellular dialysate. Format: in vivo, mouse. The following applies: single oral dose, male R6/2, 7-8 weeks. How it is done:
Microdialysis PK/PD studies were conducted at Brains Online, Inc. (San Francisco, CA, USA) Male R6/2 (CBA/C57Bl/6 strain, CAG 120) mice aged 7-8 weeks (20 - 30 g; The Jackson Laboratory, USA) were used for the experiments. The animals were group housed in plastic cages (3-4 animals / cage) and had access to food and water ad libitum. Experiments were conducted in accordance with the declarations of Helsinki and were approved by the Institutional Animal Care and Use Committee of the University of California, San-Francisco. […] Mice were anesthetized using isoflurane (2%, 800 mL/min O2). Bupivacain/epinephrine was used for local anesthesia. Carprophen was used peri-/post-operative as analgesia. The animals were placed in a stereotaxic frame (Kopf instruments, USA), and microdialysis probes were inserted into the striatum. […] After surgery animals were kept individually in cages and provided food and water ad libitum. Animals were fasted the night before the experiment. Experiments were performed one day after surgery. […] Treatment effects were evaluated among different drug concentrations and also compared to baseline, using two-way ANOVA for repeated measurements followed by Student-Newman-Keuls post-hoc test. […] Pharmacodynamic parameters were calculated using Phoenix™ WinNonlin® Pro Node initial (Pharsight Corporation, Mountain View, CA, USA).

The subject of a further series is R6/2 mice. Put plainly: T2-MRI brain volumetry. The following applies: chronic administration, 13 weeks. Format: in vivo, mouse. How it is done: MRI analysis was performed for all mice at the age of 13 weeks in a horizontal 7T magnet with bore size 160 mm (Magnex Scientific Ltd., Oxford, UK) equipped with Magnex gradient set (max. gradient strength 400 mT/m, bore 100 mm) interfaced to a Varian DirectDrive console (Varian, Inc., Palo Alto, CA) using a volume coil for transmission and surface phased array coil for receiving (Rapid Biomedical GmbH, Rimpar, Germany). Isoflurane -anesthetized mice were fixed to a head holder and positioned in the magnet bore in a standard orientation relative to gradient coils. Rectal temperature (TC-1000 Temperature Controller, CWE Inc., Ardmore, PA, USA) and respiration (ECG Trigger Unit, Rapid Biomedical GmbH) were monitored throughout the study and the body temperature was kept at 36-37°C. […]
All values are presented as mean ± Standard Error of Mean (SEM), and differences are considered to be statistically significant at the p < 0.05 level. […] Differences between group means were analyzed by 1-way-ANOVA followed by Dunnett’s test (comparison to the control (=vehicle treated TG mice) group). The acquisition of the Cued two-choice swim test was analyzed using Fisher’s exact test.

Turning to `CN1C(=O)c2nc(Cc3ccc(C(F)(F)F)cc3)[nH]c2N2C1=N[C@H]1CCC[C@H]12` [SCH-51866, (+)-cis-5,6a,7,8,9,9a-hexahydro-2-[4-[trifluro-methyl]phenylmethyl]-5-methyl-cylopent[4,5]imidazo [2,1-b]purin-4(3H)one], the “SCH-51866 in brain extracellular fluid” value in series [1] is “dose-dependent accumulation”. Besides, in the series with R6/2 mice, the “brain volume, cortex (MRI)” value was “no improvement in brain volume” and the “brain volume, striatum (MRI)” value is listed as “no improvement in brain volume”.
